In patent publication US20060069132A1, “Azolecarboxamide herbicides” (priority 2004, published 2006):
Read-outs that look alike come from different tables or passages of the source.

What was measured:
common ragweed = assay: Test C pre-/postemergence herbicide test; format: in vivo, Ambrosia elatior; design: key to Plant response rating, Ragweed: 0 = no effect, 100 = complete control; conditions: preemergence; for Plant response rating (0 = no effect, 100 = complete control), Ragweed: 125 g ai/ha
Text: (§1) Seeds of plant species selected from bermudagrass (Cynodon dactylon (L.) Pers.), Surinam grass (Urochloa decumbens (Staph) R. D. Webster, previously named Brachiaria decumbens Stapf), cocklebur (Xanthium strumarium L.), corn (Zea mays L.), large crabgrass (Digitaria sanguinalis (L.) Scop.), woolly cupgrass (Eriochloa villosa (Thunb.) Kunth), giant foxtail (Setaria faberi Herrm.), goosegrass (Eleusine indica (L.) Gaertn.), johnsongrass (Sorghum halepense (L.) Pers.), kochia (Kochia scoparia (L.) Schrad.), lambsquarters (Chenopodium album L.), morningglory (Ipomoea coccinea L.), eastern black nightshade (Solanum ptycanthum Dunal), yellow nutsedge (Cyperus esculentus L.), pigweed (Amaranthus retroflexus L.), common ragweed (Ambrosia elatior L.), soybean (Glycine max (L.) Merr.), common (oilseed) sunflower (Helianthus annuus L.) and velvetleaf (Abutilon theophrasti Medik.) were planted and treated preemergence with test chemicals formulated in a non-phytotoxic solvent mixture which included a surfactant.
(§2) At the same time, plants selected from these crop and weed species and also winter barley (Hordeum vulgare L.), blackgrass (Alopecurus myosuroides Huds.), canarygrass (Phalaris minor Retz.), chickweed (Stellaria media (L.) Vill.), downy bromegrass (Bromus tectorum L.), green foxtail (Setaria viridis (L.) Beauv.), Italian ryegrass (Lolium multiflorum Lam.), wheat (Triticum aestivum L.), wild oat (Avenafatua L.) and windgrass (Apera spica-venti (L.) Beauv.) were treated with postemergence applications of some of the test chemicals formulated in the same manner. Plants ranged in height from 2 to 18 cm (1- to 4-leaf stage) for postemergence treatments. Plant species in the flooded paddy test consisted of rice (Oryza sativa), smallflower umbrella sedge (Cyperus difformis L.), ducksalad (Heteranthera limosa (Sw.) Willd.) and barnyardgrass (Echinochloa crus-galli (L.) Beauv.) grown to the 2-leaf stage for testing. Treated plants and controls were maintained in a greenhouse for 12 to 14 days, after which time all species were compared to controls and visually evaluated. Plant response ratings, summarized in Table C, are based on a scale of 0 to 100 where 0 is no effect and 100 is complete control. A dash (-) response means no test result.

rice = assay: Test C flooded paddy test; format: in vivo, Oryza sativa; conditions: for Plant response rating, Rice: 500 g ai/ha, visual rating after 12 to 14 days
In short: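 Plants were grown to the 1- to 4-leaf stage (2–18 cm) and then treated postemergence, or grown to the 2-leaf stage for the flooded paddy test. They were held in a greenhouse for 12 to 14 days and then scored by eye against controls, where 0 is no effect and 100 is complete control.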

Surinam grass = assay: Test C pre-/postemergence herbicide test; format: in vivo, Urochloa decumbens; conditions: preemergence; for Plant response rating (0 = no effect, 100 = complete control), Surinam Grass: 125 g ai/ha
Text: as §1, §2

ducksalad = assay: Test C flooded paddy test; format: in vivo, Heteranthera limosa; conditions: for Plant response rating, Ducksalad: 500 g ai/ha, visual rating after 12 to 14 days
eastern black nightshade = assay: Test C pre-/postemergence herbicide test; format: in vivo, Solanum ptycanthum; conditions: preemergence; for Plant response rating (0 = no effect, 100 = complete control), Nightshade: 125 g ai/ha
Text: as §1, §2

pigweed = assay: Test C pre-/postemergence herbicide test; format: in vivo, Amaranthus retroflexus; conditions: preemergence; for Plant response rating (0 = no effect, 100 = complete control), Pigweed: 125 g ai/ha
Text: as §1, §2

large crabgrass = assay: Test C pre-/postemergence herbicide test; format: in vivo, Digitaria sanguinalis; conditions: preemergence; for Plant response rating (0 = no effect, 100 = complete control), Crabgrass, Large: 125 g ai/ha
Text: as §1, §2

barnyardgrass = assay: Test A pre-/postemergence herbicide test; format: in vivo, Echinochloa crus-galli; conditions: for pest or weed control at 125 g/ha / pest or weed control at 500 g/ha: Echinochloa crus-galli, 240 h, read-out: Barnyardgrass plant response rating; for pest or weed control at 125 g/ha: 125 g ai/ha
In short: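 Sandy loam soil given preemergence directed spray; plants at 2 to 10 cm, one- to two-leaf stage, sprayed to runoff postemergence, compounds in non-phytotoxic solvent with surfactant. Injury rated visually versus untreated controls after about ten greenhouse days, 0 (no effect) to 100 (complete control); dash means not tested.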

[1] = 500 g ai/ha, scale 0 to 100 (0 no effect, 100 complete control), visual, 12 to 14 days
[2] = 125 g ai/ha, scale 0 to 100 (0 no effect, 100 complete control)
[3] = 250 g ai/ha, scale of 0 to 100, 0 is no effect, 100 is complete control
[4] = scale 0 to 100 (0 no effect, 100 complete control)
[5] = 62 g ai/ha, scale 0 to 100 (0 no effect, 100 complete control)

| SMILES | Plant response rating, Ragweed (common ragweed; 62 g ai/ha, scale 0 to 100) | Plant response rating (0 = no effect, 100 = complete control), Ragweed (common ragweed) | Plant response rating, Ragweed (common ragweed; 250 g ai/ha, scale 0-100) | Plant response rating, Ragweed (common ragweed; [1]) | Rice plant response rating (rice; 62 g ai/ha, scale 0 to 100) | Rice plant response rating (rice; [2]) | Rice plant response rating (rice; [3]) | Plant response rating, Rice (rice; [4]) | Ducksalad plant response rating (ducksalad; 62 g ai/ha, scale 0 to 100) | Ducksalad plant response rating (ducksalad; [2]) | Ducksalad plant response rating (ducksalad; [3]) | Plant response rating, Ducksalad (ducksalad; [4]) | Plant response rating, Pigweed (pigweed; 62 g ai/ha, scale 0 to 100) | Plant response rating (0 = no effect, 100 = complete control), Pigweed (pigweed) | Plant response rating, Pigweed (pigweed; 250 g ai/ha, scale 0-100) | Plant response rating, Pigweed (pigweed; [1]) | Plant response rating, Crabgrass, Large (large crabgrass; 62 g ai/ha, scale 0 to 100) | Plant response rating (0 = no effect, 100 = complete control), Crabgrass, Large (large crabgrass) | Plant response rating, Crabgrass, Large (large crabgrass; 250 g ai/ha, scale 0-100) | Plant response rating, Crabgrass, Large (large crabgrass; [1]) | further results |
| --- | --- | --- | --- | --- | --- | --- | --- | --- | --- | --- | --- | --- | --- | --- | --- | --- | --- | --- | --- | --- | --- |
| CCC1=NN(C(C)(C)C)CC1C(=O)Nc1cc(C(=O)N(C)C)ccc1F (racemic) [Compound 343] | 70 | 90 | 90 | 100 | 20 | 50 | 70 | 80 | 40 | 80 | 90 | 90 | 80 | 90 | 100 | 100 | 50 | 80 | 80 | 100 | Plant response rating, Surinam Grass (Surinam grass; 62 g ai/ha, scale 0 to 100): 60; Plant response rating (0 = no effect, 100 = complete control), Surinam Grass (Surinam grass): 85; Plant response rating, Surinam Grass (Surinam grass; 250 g ai/ha, scale 0-100): 100; Plant response rating, Surinam Grass (Surinam grass; [1]): 100; Plant response rating, Nightshade (eastern black nightshade; 62 g ai/ha, scale 0 to 100): 60; Plant response rating (0 = no effect, 100 = complete control), Nightshade (eastern black nightshade): 60; Plant response rating, Nightshade (eastern black nightshade; 250 g ai/ha, scale 0-100): 90; Plant response rating, Nightshade (eastern black nightshade; [1]): 95 |
| C=Cn1nc(C(C)(C)C)cc1C(=O)Nc1cccc(C(C)=O)c1 [Compound 127] |  |  |  |  |  | 25 | 25 | 25 |  | 15 | 20 | 80 |  |  |  |  |  |  |  |  | Rice plant response rating (rice; [5]): 20; Ducksalad plant response rating (ducksalad; [5]): 0; Barnyardgrass plant response rating (barnyardgrass; Postemergence, 500 g ai/ha, 0 to 100 scale, 0 no effect, 100 complete control): 30; Plant response rating, Barnyardgrass (barnyardgrass; Postemergence, 2000 g ai/ha, 0 to 100 scale, 0 no effect, 100 complete control): 50; Barnyardgrass plant response rating (barnyardgrass; Preemergence, 500 g ai/ha, visual rating, 0 to 100 scale (0 no effect, 100 complete control)): 20; Barnyardgrass plant response rating (barnyardgrass; Preemergence, 2000 g ai/ha, visual rating, 0 to 100 scale (0 no effect, 100 complete control)): 30 |
| CCNC(=O)c1ccc(F)c(NC(=O)c2c3c(nn2CC)C(C)(C)CC3)c1 [Compound 353] |  |  |  |  | 0 | 0 | 20 | 40 | 0 | 0 | 30 | 30 |  |  |  |  |  |  |  |  |  |
| CCc1nn(C(C)(C)C)nc1C(=O)Nc1cccc(C(=O)N(C)CC)c1 [Compound 384] | 100 | 100 | 100 |  | 60 | 65 | 80 | 80 | 80 | 80 | 80 | 85 | 100 | 100 | 100 |  | 100 | 100 | 100 |  |  |
| Cc1nn(C(C)(C)C)nc1C(=O)Nc1cccc(C(=O)N2CC=CC2)c1 [Compound 393] | 20 | 100 | 100 | 100 | 45 | 75 | 80 | 85 | 75 | 75 | 80 | 90 | 90 | 100 | 100 | 100 | 95 | 100 | 100 | 100 |  |
| C=CCNC(=O)c1cccc(NC(=O)c2nn(C(C)(C)C)nc2CC)c1 [Compound 414] | 15 | 45 |  | 65 |  |  |  |  |  |  |  |  | 100 | 100 |  | 100 | 100 | 100 | 100 | 100 | Plant response rating, Surinam Grass (Surinam grass; 62 g ai/ha, scale 0 to 100): 0; Plant response rating (0 = no effect, 100 = complete control), Surinam Grass (Surinam grass): 80; Plant response rating, Surinam Grass (Surinam grass; [1]): 100; Plant response rating, Nightshade (eastern black nightshade; 62 g ai/ha, scale 0 to 100): 85; Plant response rating (0 = no effect, 100 = complete control), Nightshade (eastern black nightshade): 90; Plant response rating, Nightshade (eastern black nightshade; [1]): 100 |
| CCNC(=O)c1cccc(NC(=O)c2nc(C(C)(C)C)nn2CC)c1 [Compound 446, 3-(1,1-dimethylethyl)-1-ethyl-N-[3-[(ethylamino)carbonyl]phenyl]-1H-1,2,4-triazole-5-carboxamide] |  |  |  |  |  |  |  |  |  |  |  |  |  |  |  |  |  |  |  |  | pest or weed control at 125 g/ha (barnyardgrass; post-emergence, Postemergence, 0 to 100 scale, 0 no effect, 100 complete control): 80%; pest or weed control at 500 g/ha (barnyardgrass; post-emergence, Postemergence, 500 g ai/ha, 0 to 100 scale, 0 no effect, 100 complete control): 90%; pest or weed control at 125 g/ha (barnyardgrass; pre-emergence, preemergence, visual injury, 0 to 100 scale (0 no effect, 100 complete control)): 55%; pest or weed control at 500 g/ha (barnyardgrass; pre-emergence, preemergence, 500 g ai/ha, visual injury, 0 to 100 scale (0 no effect, 100 complete control)): 85% |
